Where “and” joins values, the source holds several entries; their conditions need not be identical. Identical values can stand only once. Each block holds one compound with its values, some of them ahead of it.
Assays:
Type in all cases: physicochemical
[1] = Three-electrode cyclic voltammetry of quinones in 1 M KOH (incl. Pourbaix diagram); conditions: for equilibrium cell potential vs. ferro/ferricyanide suggested by cyclic voltammograms: 1 M KOH, 100 mV/s, glassy carbon electrode; for equilibrium potential of couple with ferrocyanide compared with 2,6-DHAQ/ferrocyanide: CV at 100 mV/s on glassy carbon electrode
Experimental: FIG. 1. Pourbaix diagram of 2,6-DHAQ. […] FIGS. 2a-d. a. Cyclic voltammogram of 2 mM 2,6-DHAQ (left curve) and ferrocyanide (right curve) scanned at 100 mV/s; arrows indicate scan direction. Dotted line represents cyclic voltammogram of 1 M KOH background scanned at 100 mV/s. b and c. Cyclic voltammograms of 2,3,6,7-THAQ (left curve in b) and 1,5-DMAQ (left curve in c), respectively, plotted along ferrocyanide (right curve) scanned at 100 mV/s on glassy carbon electrode.
Electrochemical characterization. A glassy carbon electrode was used for three-electrode cyclic voltammetry tests, except in the electrochemical window tests where graphite foil was used to mimic the condition of porous carbon paper. Rotating-disk electrode (RDE) experiments of 2,6-DHAQ (1 mM) in 1 M KOH solution were performed using a BASi RDE-2 rotating-disk electrode system (FIG. 3a). All tests were carried out using a Gamry Reference 3000 potentiostat, with a Pt counter electrode and an Ag/AgCI reference electrode (equilibrated with 3M NaCI, 213 mV vs. standard hydrogen electrode. A Levich plot was constructed from the RDE data by plotting the mass-transport limited current vs. the square root of the rotation rate (FIG. 3b). The diffusion coefficient of 2,6-DHAQ was calculated for each of three runs from the slope of the line fit to the Levich equation (Bard, A. J. & Faulkner, L. R. Electrochemical Methods: Fundamentals and Applications. (Wiley, 2000)). The kinematic viscosity was taken to be 1.08×10^−6 m^2 s^-1 (Hitchcock, L. B. & Mcllhenny, J. S. Ind. Eng. Chem. 27, 461-466 (1935)). The resulting value of the diffusion coefficient is 4.8(2) x 10^-6 cm^2 s^-1.

[2] = Solubility measurement by UV-Vis absorbance at 413 nm; conditions: 1 M KOH solution, pH 14, aqueous buffer, thermodynamic from solid; room temperature, in 1 M KOH
Experimental: Solubility measurement. Room temperature solubility in 1 M KOH solution was measured by measuring the absorbance at 413 nm and comparing to an absorbance-vs.-concentration calibration curve determined by preparing known concentrations of 2,6-DHAQ. UV-Vis spectrophotometry measurements were performed using an Agilent Cary 60 spectrophotometer equipped with a Quantum
Northwest T2 temperature regulator. Appropriate aliquots of 2,6-DHAQ stock solution were added to 1 M KOH blank solution and their UV-Vis absorbance spectra measured. A saturated solution of 2,6-DHAQ in 1 M KOH was prepared by adding 2,6-DHAQ potassium salt into 1 M KOH solution (10 mL) until a thin layer of precipitate formed, the remaining solution was diluted by known proportions, and the absorbance of the resulting solution was compared to the calibration curve.

[3] = Rotating-disk electrode study / Levich plot; conditions: 1 mM in 1 M KOH, Levich equation, three runs
Experimental: FIGS. 3a-3d. a. Rotating disk electrode study of the reduction of a 1 mM solution of 2,6-DHAQ in 1 M KOH on a glassy carbon electrode at various rotation rates (curves from top to bottom in legend). b. Levich plot of 1 mM 2,6-DHAQ in 1 M KOH. Data are an average of the current at -1.187 V vs. SHE for each of three runs; error bars indicate the standard deviation. c. Cyclic voltammogram of 1 mM 2,6-DHAQ in 1 M KOH (solid line). Dashed lines represent simulated cyclic voltammograms of a two-electron reduction of varying electrochemical rate constant ko and a reduction potential Eo of -0.684 V vs. SHE. The simulations assumed a ═0.5. The scan rate in all cases was 25 mV s^-1. d. […]
Electrochemical characterization. […] All tests were carried out using a Gamry Reference 3000 potentiostat, with a Pt counter electrode and an Ag/AgCI reference electrode (equilibrated with 3M NaCI, 213 mV vs. standard hydrogen electrode. A Levich plot was constructed from the RDE data by plotting the mass-transport limited current vs. the square root of the rotation rate (FIG. 3b). The diffusion coefficient of 2,6-DHAQ was calculated for each of three runs from the slope of the line fit to the Levich equation (Bard, A. J. & Faulkner, L. R. Electrochemical Methods: Fundamentals and Applications. (Wiley, 2000)). The kinematic viscosity was taken to be 1.08×10^−6 m^2 s^-1 (Hitchcock, L. B. & Mcllhenny, J. S. Ind. […]

[4] = Chemical and electrochemical stability by proton NMR; conditions: sensitivity level of 1%; after 30 days in 5 M KOH at 100° C. and after 100 charge-discharge cycles (FIGS. 15a-c)
Experimental: FIGS. 15a-15c. Chemical and electrochemical stability of 2,6-DHAQ. ^1H NMR (500 MHz, DMSO-d6) spectra. a. 2,6-DHAQ 6: 8.04 (d, 2H, J═8.3 Hz, 2 x ArCH), 7.47 (d, 2H, J═2.5 Hz, 2 x ArCH), 7.19 (dd, 2H, J═8.3, 2.5 Hz, 2 x ArCH). b. 2,6-DHAQ, after 30 days heating in 5 M KOH solution at 100° C. c. 2,6-DHAQ, after 100 charge-discharge cycles.
The cell was cycled at a constant current density of ±0.1 A cm^-2 for 100 cycles (FIG. 14a). […] A 0.1% loss in capacity per cycle was observed during cycling, which appears to be a continuous loss of electro-active species over the 100 cycles (FIG. 14b). We explored three possible loss mechanisms: chemical decomposition, electrolyte crossover through the membrane, and leakage from the pumping system. […] This observation places an upper limit on crossover of 0.8% of the DHAQ, implying a crossover current density of <2.5 μA cm^-2 (FIGS. 16a and 16b). […] A source of leakage was readily apparent but not quantifiable at the exit of the humidified nitrogen bubbling through the negolyte to prevent energy loss by permeation of atmospheric oxygen. Coloration could also be found on the gaskets, indicating a likely site of electrolyte leakage (FIGS. 17a and 17b).

[5] = Crossover study: CV of ferro-ferricyanide posolyte after 100 charge-discharge cycles; conditions: for fraction of 2,6-DHAQ crossed over the membrane into the posolyte: Nafion membrane
Experimental: FIGS. 16a-16b. Test of electrolyte permeation through membrane. Full (a) and zoomed in (b) cyclic voltammograms of 0.4 M ferro-ferricyanide electrolyte after 100 charge-discharge cycles. Same posolyte to which was added 3.9 mM 2,6-DHAQ, and 7.6 mM 2,6-DHAQ.
Crossover study. The concentration of crossed-over 2,6-DHAQ into the ferro-ferricyanide posolyte solution was evaluated using CV. After 100 charge-discharge cycles, the ferro-ferricyanide posolyte solution (5 mL) was collected and analyzed by CV (scan at 100 mV/s. The correlation between the CV signal and 2,6-DHAQ concentration was established by titrating known amounts of 2,6-DHAQ (12 mg or […]) to the cycled posolyte followed by controlled dilution. The comparison indicates <10 mM 2,6-DHAQ had crossed over into the posolyte, which corresponds to <2% of the 2,6-DHAQ originally assembled into the negolyte.

[6] = Cyclic voltammogram modeling (simulated fit to measured CV)
Experimental: FIGS. 3a-3d. a. Rotating disk electrode study of the reduction of a 1 mM solution of 2,6-DHAQ in 1 M KOH on a glassy carbon electrode at various rotation rates (curves from top to bottom in legend). b. Levich plot of 1 mM 2,6-DHAQ in 1 M KOH. Data are an average of the current at -1.187 V vs. SHE for each of three runs; error bars indicate the standard deviation. c. Cyclic voltammogram of 1 mM 2,6-DHAQ in 1 M KOH (solid line). Dashed lines represent simulated cyclic voltammograms of a two-electron reduction of varying electrochemical rate constant ko and a reduction potential Eo of -0.684 V vs. SHE. The simulations assumed a ═0.5. The scan rate in all cases was 25 mV s^-1. d. Cyclic voltammogram of 1 mM 2,6-DHAQ in 1 M KOH (solid line). Dashed lines represent the simulated components of two successive one-electron reductions with reduction potentials of -0.657 V vs. SHE and -0.717 V vs. SHE, respectively, as well as the simulated total current arising from such a reaction. Each simulated reduction has a rate constant ko ═7 x 10^-3 cm 5^-1. The simulations assumed a ═0.5.
Cyclic voltammogram modeling. Computation was performed using Mathematica 10.0.1.0 according to algorithms by Oldham and Myland (Oldham, K. B. & Myland, J. C. Electrochim. Acta 56, 10612-10625 (2011)). The diffusivity of 2,6-DHAQ and both the one-electron and two-electron reduction products were assumed to be 4.8 x 10^-6 cm^2 s^-1, based on our RDE studies. The temperature was 293 K. Time was discretized into 40 ms increments, and the current at each time was computed based on the sum of previous currents as described by Oldham (Oldham, K. B. & Myland, J. C. Electrochim. Acta 56, 10612-10625 (2011)).
To model the two-electron reduction process (FIG. 1), the Butler-Volmer equation with the number of electrons n ═2 was used in place of Oldham equation (4:5), and the right-hand-side of equation (8:3) was multiplied by 2 to account for a two-electron reduction (Bard, A. J. & Faulkner, L. R. Electrochemical Methods: Fundamentals and Applications. (Wiley, 2000); Oldham, K. B. & Myland, J. C. Electrochim. Acta 56, 10612-10625 (2011)). The reduction potential was assumed to be equal to the voltage equidistant from the two peaks on the measured cyclic voltammogram (-0.684 V vs. SHE) and the charge transfer coefficient a was assumed to be 0.5. The electrochemical rate constant ko was then varied from 10^-3 cm s^-1 to 10^-5 cm s^-1.
To model the two successive one-electron reductions (FIG. 3d), Oldham equations (12:13) and (12:14) were used (Oldham, K. B. & Myland, J. C. Electrochim. Acta 56, 10612-10625 (2011)). The charge transfer coefficients al and a2 were assumed to be equal to 0.5, and the electrochemical rate constants for the two reductions were assumed equal. The values of the single rate constant and the first and second reduction potentials were permitted to vary freely. A reasonable fit to the experimental data was observed when the reduction potential of the first reduction Ei ═-0.657 V vs. SHE, the reduction potential of the second reduction E2 ═-0.717 V vs. SHE, and the two electrochemical rate constants ko,i and ko,2 both equaled 7×10^−3 cm s^-1, a value very close to that observed in other anthraquinone systems (Huskinson, B. et al. Nature 505, 195-198 (2014)).

[7] = Cyclic voltammetry of FMN and ferrocyanide; conditions: 2 mM, 100 mV/s, glassy carbon electrode
Experimental: FIG. 5. Cyclic voltammogram of 2 mM FMN (left curve) and ferrocyanide (right curve) scanned at 100 mV/s on glassy carbon electrode; arrows indicate scan direction.
Before and during the test, the electrolytes were purged with UHP nitrogen to remove and then keep out atmospheric oxygen. […] Galvanostatic cycling shown in […]

[8] = after 100 charge-discharge cycles
[9] = 1 mM in 1 M KOH, simulated fit, two successive one-electron reductions

- equilibrium cell potential vs. ferro/ferricyanide suggested by cyclic voltammograms [1]: ~1.35 V
Compound: Cc1c(O)ccc2c1C(=O)c1ccc(O)c(C)c1C2=O [1,5-DMAQ, 1,5-dimethyl-2,6-dihydroxy-9,10-anthraquinone]
- equilibrium potential of couple with ferrocyanide compared with 2,6-DHAQ/ferrocyanide [1]: higher equilibrium potential than 2,6-DHAQ/ferrocyanide

- equilibrium cell potential vs. ferro/ferricyanide suggested by cyclic voltammograms [1]: ~1.35 V
Compound: O=C1c2cc(O)c(O)cc2C(=O)c2cc(O)c(O)cc21 [2,3,6,7-THAQ, 2,3,6,7-tetrahydroxy-9,10-anthraquinone]
- equilibrium potential of couple with ferrocyanide compared with 2,6-DHAQ/ferrocyanide [1]: higher equilibrium potential than 2,6-DHAQ/ferrocyanide

- solubility [2]: > 600 mM
- diffusion coefficient [3]: 4.8(2) x 10^-6 cm^2 s^-1
- decomposition by proton NMR [4]: no decomposition product
- concentration of 2,6-DHAQ crossed over into the posolyte [5, 8]: < 10000 µM
- fraction of 2,6-DHAQ crossed over the membrane into the posolyte [5, 8]: < 1% and < 2%
- fraction of 2,6-DHAQ crossed over the membrane into the posolyte ([5]; after 100 charge-discharge cycles, listed as DHAQ): ≤ 0.8%
- crossover current density ([5]; implied by crossover upper limit): < 2.5 μA cm^-2
- equilibrium cell potential vs. ferro/ferricyanide suggested by cyclic voltammograms [1]: 1.2 V
- reduction potential E0 (voltage equidistant from the two CV peaks) ([6]; 1 mM in 1 M KOH, two-electron reduction model): -0.684 V vs. SHE
- reduction potential of the first one-electron reduction [6, 9]: -0.657 V vs. SHE
- reduction potential of the second one-electron reduction [6, 9]: -0.717 V vs. SHE
- separation of the potentials of the two one-electron reductions ([6]; pH 14): 0.06 V
Compound: O=C1c2ccc(O)cc2C(=O)c2ccc(O)cc21 [2,6-DHAQ, 2,6-dihydroxy-9,10-anthraquinone]
- rate constant ko of each simulated reduction ([6]; FIG. 3d legend, simulated fit): 7 x 10^-3 cm 5^-1
- electrochemical rate constant k0 (both reductions) ([6]; simulated fit, charge transfer coefficient 0.5): 0.007 cm/s

- overall peak separation of cyclic voltammograms vs. ferrocyanide [7]: 1 V
Compound: Cc1cc2nc3c(=O)[nH]c(=O)nc-3n(C[C@@H](O)[C@@H](O)[C@@H](O)COP(=O)(O)O)c2cc1C [FMN, riboflavin 5′ phosphate]

— patent publication US20180048011A1, “HIGH pH ORGANIC FLOW BATTERY” (President and Fellows of Harvard College, priority 2015, published 2018)
